{"source": "patent US12492373B2", "about": "“Production method for nerve tissue” (Racthera Co., Ltd., priority 2014, dated 2025)", "test_system": "human iPS cells (Ff-I01 strain)", "experiment": "Neural tissue / neuroepithelium formation in cell aggregates, bright field observation", "type": "cell-based", "settings": "StemFit AK03N; SAG 300 nM for 24, 48, 72 or 96 hr in step 1, SAG 500 nM in step 2, BMP4 1.5 nM; day 19", "method": "At the time of the start of suspension culturing (day 0 after the start of suspension culturing, […]), Y27632 ([…]) were added to the above serum-free medium (FIG. 22). By day 2 after the start of suspension culturing, a cell aggregate was formed (step 2 completed, step 3 start) under any conditions. On day 3 or later from the start of suspension culturing, BMP4 was added under 3 conditions including the following conditions 1-3. • Condition 1: (+BMP4 addition once) On day 3 of suspension culturing, a medium (50 μl) free of Y27632 and SAG, and containing human recombinant BMP4 (manufactured by R&D) was added such that the final concentration of exogenous human recombinant BMP4 was 1.5 nM (55 ng/ml). On day 6 or later from the start of suspension culturing, a half amount of the medium was changed to a serum-free medium free of Y27632, SAG and human recombinant BMP4. • Condition 2: (+BMP4 addition twice) On day 3 of suspension culturing, a medium (50 μl) free of Y27632, SAG and containing human recombinant BMP4 (manufactured by R&D) was added such that the final concentration of exogenous human recombinant BMP4 was 1.5 nM (55 ng/ml). On day 6 from the start of suspension culturing, 50 μl of the medium was discarded, and 50 μl of a medium free of Y27632 and SAG and containing human recombinant BMP4 (manufactured by R&D) was added to maintain the final concentration of exogenous human recombinant BMP4 at 1.5 nM (55 ng/ml). On day 9 or later from the start of suspension culturing, a half amount of the medium was changed with a serum-free medium free of Y27632, SAG, and human recombinant BMP4. • Condition 3: (+BMP4 addition three times) On day 3 of suspension culturing, a medium (50 μl) free of Y27632, SAG and containing human recombinant BMP4 (manufactured by R&D) was added such that the final concentration of exogenous human recombinant BMP4 was 1.5 nM (55 ng/ml). On days 6 and 9 from the start of suspension culturing, 50 μl of the medium was discarded, and 50 μl of a medium free of Y27632 and SAG and containing human recombinant BMP4 (manufactured by R&D) was added to maintain the final concentration of exogenous human recombinant BMP4 at 1.5 nM (55 ng/ml). On day 12 or later from the start of suspension culturing, a half amount of the medium was changed with a serum-free medium free of Y27632, SAG and human recombinant BMP4. […]\nOn day 3 after the start of suspension culturing, a medium (50 μl) free of Y27632 and SAG, and containing human recombinant BMP4 (manufactured by R&D) was added such that the final concentration of exogenous human recombinant BMP4 was 1.5 nM (55 ng/ml) or 5 nM (183 ng/ml). […]"}
{"compound": "CNC1CCC(N(Cc2cccc(-c3ccncc3)c2)C(=O)c2sc3ccccc3c2Cl)CC1", "note": "(stereo not shown) [SAG]", "values": [{"measurement": "cell aggregate growth and neuroepithelium formation", "result": "neuroepithelium can be formed efficiently"}]}
